Results as given in US9084794B2, “Fatty acid synthase inhibitors” (GlaxoSmithKline Intellectual Property (No. 2) Limited, priority 2011, dated 2015).

What follows are compounds tested against FAS (Homo sapiens, UniProt P49327) (assay: FAS activity inhibition (Assay #1 residual NADPH/resazurin or Assay #2 CoA/CPM thio-reactive dye)). Conditions: measured through one of the two assays, at least one experiment or the average of multiple experiments.
Type: biochemical
Experimental: FAS activity was measured through one of the two following assays.
Inhibition of FAS activity can be measured based on the detection of residual NADPH substrate after the FAS assay is quenched. This assay is run as a 10 μL endpoint assay in 384-well format, where the reaction contains 20 μM malonyl-CoA, 2 μM acetyl-CoA, 30 μM NADPH and 40 nM FAS in 50 mM sodium phosphate, pH 7.0. The assay is run by sequentially dispensing 5 μl of a malonyl-CoA solution, then enzyme solution Containing the acetyl-CoA, and NADPH) into a black, low volume assay plate (Greiner 784076) pre-dispensed with 100 nL compound solutions in DMSO. The reaction is incubated at ambient temperature for 60 minutes, then quenched with 5 μL, of a developing solution composed of 90 μM resazurin, 0.3 IU/ml diaphorase in 50 mM sodium phosphate, pH 7.0. The developed reaction is read on a Molecular Devices Analyst or Acquest (or equivalent) plate reader using a 530 nm excitation wavelength filter, a 580 nm emission filter, and 561 nm dichroic filter. The test compounds are prepared in neat DMSO at a concentration of 10 mM. For inhibition curves, compounds are diluted using a three fold serial dilution and tested at 11 concentrations (e.g. 25 μM-0.42 nM). Curves are analysed using ActivityBase and XLfit, and results are expressed as pIC50 values.
Inhibition of FAS can also be quantified based on the detection of the CoA products with a thio-reactive coumarin dye. This assay is run as a […] assay in 384-well format, where the reaction contains 20 μM malonyl-CoA, 20 μM acetyl-CoA, 40 μM NADPH and 2 nM FAS in 50 mM sodium phosphate, pH 7.0, and 0.04% Tween-20. The assay is run by adding […] enzyme solution to a black, low volume assay plate (Greiner 784076) pre-dispensed with 100 nl compound solutions in DMSO. After 30 minutes, 5 μL substrate is added, and the reaction incubated at ambient temperature for an additional 60 minutes. The reaction is then quenched with 100 μL of 6M guanidine-HCl containing 50 μM CPM (7-diethylamino-3-(4′-maleimidylphenyl)-4-methylcoumarin CPM; thio-reactive dye), and incubated for 30 minutes. The plate is read on an Envision (PerkinElmer) or equivalent plate reader using a 380 nm excitation wavelength filter, and a 486 nm emission filter. Data fitting and compound preparations are done as described above.

Chain of FAS (P49327 whole entry): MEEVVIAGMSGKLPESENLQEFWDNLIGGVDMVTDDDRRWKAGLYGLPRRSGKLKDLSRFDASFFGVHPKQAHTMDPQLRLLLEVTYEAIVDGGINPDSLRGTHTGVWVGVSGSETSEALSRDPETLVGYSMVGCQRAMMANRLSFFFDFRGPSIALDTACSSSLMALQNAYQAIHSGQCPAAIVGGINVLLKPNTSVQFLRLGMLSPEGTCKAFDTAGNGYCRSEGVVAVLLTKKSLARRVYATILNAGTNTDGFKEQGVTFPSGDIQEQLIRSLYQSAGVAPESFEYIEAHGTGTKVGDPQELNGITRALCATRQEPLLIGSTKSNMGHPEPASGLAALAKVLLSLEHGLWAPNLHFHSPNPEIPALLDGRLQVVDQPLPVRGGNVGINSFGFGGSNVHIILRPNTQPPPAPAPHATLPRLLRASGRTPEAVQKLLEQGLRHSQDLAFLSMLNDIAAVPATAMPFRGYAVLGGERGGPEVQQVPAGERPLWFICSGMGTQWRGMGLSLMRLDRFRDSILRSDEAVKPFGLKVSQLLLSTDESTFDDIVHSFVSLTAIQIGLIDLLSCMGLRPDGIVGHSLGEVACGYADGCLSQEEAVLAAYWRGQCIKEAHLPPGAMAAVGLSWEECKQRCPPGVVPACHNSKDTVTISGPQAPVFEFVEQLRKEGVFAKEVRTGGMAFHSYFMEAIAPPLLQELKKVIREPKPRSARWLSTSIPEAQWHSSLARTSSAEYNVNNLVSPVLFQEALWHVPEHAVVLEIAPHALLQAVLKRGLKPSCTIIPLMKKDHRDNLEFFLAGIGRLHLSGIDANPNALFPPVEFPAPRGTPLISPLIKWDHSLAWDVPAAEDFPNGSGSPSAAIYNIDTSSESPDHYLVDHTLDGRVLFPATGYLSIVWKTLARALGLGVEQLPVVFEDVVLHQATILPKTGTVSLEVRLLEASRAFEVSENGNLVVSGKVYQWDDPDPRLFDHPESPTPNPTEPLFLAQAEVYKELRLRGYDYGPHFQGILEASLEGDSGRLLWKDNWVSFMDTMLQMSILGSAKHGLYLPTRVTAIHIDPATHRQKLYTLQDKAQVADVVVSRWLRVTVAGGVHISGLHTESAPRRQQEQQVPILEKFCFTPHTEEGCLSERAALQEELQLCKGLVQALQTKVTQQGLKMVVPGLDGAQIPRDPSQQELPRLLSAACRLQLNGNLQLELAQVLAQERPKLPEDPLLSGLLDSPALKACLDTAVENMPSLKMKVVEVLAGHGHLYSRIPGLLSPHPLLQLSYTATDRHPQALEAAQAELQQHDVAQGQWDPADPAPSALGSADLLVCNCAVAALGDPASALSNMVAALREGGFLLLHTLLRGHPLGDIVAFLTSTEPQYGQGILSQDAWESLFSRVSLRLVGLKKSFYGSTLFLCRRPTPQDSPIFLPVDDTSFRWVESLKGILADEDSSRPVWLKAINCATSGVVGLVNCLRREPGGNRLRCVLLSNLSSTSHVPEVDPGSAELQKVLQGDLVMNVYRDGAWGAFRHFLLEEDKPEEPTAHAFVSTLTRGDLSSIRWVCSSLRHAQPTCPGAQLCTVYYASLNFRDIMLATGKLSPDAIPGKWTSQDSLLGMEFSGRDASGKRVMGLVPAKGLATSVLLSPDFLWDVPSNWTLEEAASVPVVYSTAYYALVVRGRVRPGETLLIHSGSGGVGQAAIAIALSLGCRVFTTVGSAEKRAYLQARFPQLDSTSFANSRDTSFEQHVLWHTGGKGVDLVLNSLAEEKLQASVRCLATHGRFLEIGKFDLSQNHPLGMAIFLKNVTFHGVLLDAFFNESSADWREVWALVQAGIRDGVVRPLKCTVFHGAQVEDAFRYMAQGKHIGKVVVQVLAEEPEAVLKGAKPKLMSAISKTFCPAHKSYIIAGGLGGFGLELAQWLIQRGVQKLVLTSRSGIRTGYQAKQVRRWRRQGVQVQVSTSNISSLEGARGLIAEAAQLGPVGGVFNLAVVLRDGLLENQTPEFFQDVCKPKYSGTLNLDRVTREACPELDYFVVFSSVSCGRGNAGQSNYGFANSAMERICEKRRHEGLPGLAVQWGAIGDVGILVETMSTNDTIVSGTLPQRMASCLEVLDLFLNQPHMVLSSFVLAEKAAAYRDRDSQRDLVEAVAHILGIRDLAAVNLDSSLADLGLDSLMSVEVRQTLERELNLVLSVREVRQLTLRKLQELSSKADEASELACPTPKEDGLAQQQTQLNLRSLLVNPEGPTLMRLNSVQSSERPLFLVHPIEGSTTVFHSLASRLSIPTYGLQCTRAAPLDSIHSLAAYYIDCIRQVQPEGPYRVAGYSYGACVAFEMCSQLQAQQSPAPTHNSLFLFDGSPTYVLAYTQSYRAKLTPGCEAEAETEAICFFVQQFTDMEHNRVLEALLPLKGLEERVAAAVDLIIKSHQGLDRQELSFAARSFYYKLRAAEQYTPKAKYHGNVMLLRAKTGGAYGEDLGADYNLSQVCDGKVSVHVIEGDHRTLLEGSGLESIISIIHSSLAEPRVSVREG

Row | SMILES | IC50 [nM]
1 | O=C(O)CC(c1ccc(-c2ccc3cccnc3c2)cc1)N1CCC2(CC1)CN(C1CC1)C(=O)CO2 (centres unmarked) [Example 6, 3-(4-cyclopropyl-3-oxo-1-oxa-4,9-diazaspiro[5.5]undecan-9-yl)-3-(4-(quinolin-7-yl)phenyl)propanoic acid] | 501
2 | COc1ccc(-c2ccc(C(C(N)=O)N3CCC4(CC3)CN(C3CC3)C(=O)CO4)c(F)c2)cc1 (centres unmarked) [Example 33, 2-(4-cyclopropyl-3-oxo-1-oxa-4,9-diazaspiro[5.5]undecan-9-yl)-2-(3-fluoro-4′-methoxy-[1,1′-biphenyl]-4-yl)acetamide] | 200
3 | CC(c1ccc(-c2ccc3cccnc3c2)cc1)N1CCC2(CC1)CN(C1CC1)C(=O)CO2 (centres unmarked) [Example 13, 4-cyclopropyl-9-(1-(4-(quinolin-7-yl)phenyl)ethyl)-1-oxa-4,9-diazaspiro[5.5]undecan-3-one] | 50
4 | O=C1COC2(CCN(C(CO)c3ccc(-c4ccc5cccnc5c4)cc3)CC2)CN1C1CC1 (racemic) [Example 22, 4-cyclopropyl-9-(2-hydroxy-1-(4-(quinolin-7-yl)phenyl)ethyl)-1-oxa-4,9-diazaspiro[5.5]undecan-3-one] | 20

Next, values leading:

Row | IC50 [nM] | SMILES
5 | 3 | NC(=O)C(c1ccc(-c2ccc3cccnc3c2)cc1F)N1CCC2(CC1)CN(C1CC1)C(=O)CO2 (single isomer, unassigned; (+)) [Example 9, (+)-2-(4-cyclopropyl-3-oxo-1-oxa-4,9-diazaspiro[5.5]undec-9-yl)-2-[2-fluoro-4-(7-quinolinyl)phenyl]acetamide]
6 | 3 | NC(=O)C(c1ccc(-c2ccc3cccnc3c2)cc1F)N1CCC2(CC1)CN(C1(CO)CC1)C(=O)CO2 (single isomer, unassigned; (-)) [Example 30, (−)-2-(2-fluoro-4-(quinolin-7-yl)phenyl)-2-(4-(1-(hydroxymethyl)cyclopropyl)-3-oxo-1-oxa-4,9-diazaspiro[5.5]undecan-9-yl)acetamide]
7 | 4 | COc1c(-c2ccc(C(C(N)=O)N3CCC4(CC3)CN(C3CC3)C(=O)CO4)c(F)c2)ccc2cccnc12 (single isomer, unassigned; (-)) [Example 78, (−)-2-(4-cyclopropyl-3-oxo-1-oxa-4,9-diazaspiro[5.5]undecan-9-yl)-2-(2-fluoro-4-(8-methoxyquinolin-7-yl)phenyl)acetamide]
8 | 1 | NC(=O)C(c1c(F)cc(-c2ccc3cccnc3c2)cc1F)N1CCC2(CC1)CN(C1CC1)C(=O)CO2 (single isomer, unassigned; (+)) [Example 73, (+)-2-(4-cyclopropyl-3-oxo-1-oxa-4,9-diazaspiro[5.5]undecan-9-yl)-2-(2,6-difluoro-4-(quinolin-7-yl)phenyl)acetamide]
